System: yeast genes (expressed mRNA)
Assay: DNA chip measurement of expressed mRNA of yeast genes after culture with a toxic chemical substance
Type: cell-based, Saccharomyces cerevisiae S288C
How it was run: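 Two-hour exposure of growing S. cerevisiae S288C (YPD, 25° C) to a sublethal toxicant preceded RNA isolation. Fluorescent cDNA was hybridized to a whole-genome array; a treated-to-untreated signal ratio of two or more was taken as significant.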

Structure (SMILES): C[S+](C)[O-] [(15), Dimethyl sulfoxide]
- The level of expressed mRNA in the presence of chemical substance/The level of expressed mRNA in the absence of chemical substance, yeast gene YDL067C (gene YDL067C (mitochondria-located protein gene), yeast cultured two hours with chemical substance, DNA chip fluorescence ratio to control): 0.7
- The level of expressed mRNA in the presence of chemical substance/The level of expressed mRNA in the absence of chemical substance, yeast gene YDR079W (gene YDR079W (mitochondria-located protein gene), yeast cultured two hours with chemical substance, DNA chip fluorescence ratio to control): 0.6
- The level of expressed mRNA in the presence of chemical substance/The level of expressed mRNA in the absence of chemical substance, yeast gene YGR062C (gene YGR062C (mitochondria-located protein gene), yeast cultured two hours with chemical substance, DNA chip fluorescence ratio to control): 0.5
- The level of expressed mRNA in the presence of chemical substance/The level of expressed mRNA in the absence of chemical substance, yeast gene YJL096W (gene YJL096W (mitochondria-located protein gene), yeast cultured two hours with chemical substance, DNA chip fluorescence ratio to control): 1.0
- The level of expressed mRNA in the presence of chemical substance/The level of expressed mRNA in the absence of chemical substance, yeast gene YJL180C (gene YJL180C (mitochondria-located protein gene), yeast cultured two hours with chemical substance, DNA chip fluorescence ratio to control): 0.6
- level of expressed mRNA in the presence of chemical substance / level in the absence of chemical substance (yeast gene YAL018C, cultured two hours with the chemical substance): 6.9
- level of expressed mRNA in the presence of chemical substance / level in the absence of chemical substance (yeast gene YAR047C, cultured two hours with the chemical substance): 0.5
- level of expressed mRNA in the presence of chemical substance / level in the absence of chemical substance (yeast gene YAR064W, cultured two hours with the chemical substance): 1.9
- level of expressed mRNA in the presence of chemical substance / level in the absence of chemical substance (yeast gene YBL044W, cultured two hours with the chemical substance): 0.7
- level of expressed mRNA in the presence of chemical substance / level in the absence of chemical substance (yeast gene YBR012C, cultured two hours with the chemical substance): 1.1
- The level of expressed mRNA in the presence of chemical substance/The level of expressed mRNA in the absence of chemical substance (yeast gene YBR047W, cultured two hours with substance): 0.8
- level of expressed mRNA in the presence of chemical substance / level in the absence of chemical substance (yeast gene YBR066C, cultured two hours with the chemical substance): 0.4
- The level of expressed mRNA in the presence of chemical substance/The level of expressed mRNA in the absence of chemical substance (yeast gene YBR100W, cultured two hours with the chemical substance): 1.3
- level of expressed mRNA in the presence of chemical substance / level in the absence of chemical substance (yeast gene YBR124W, cultured two hours with the chemical substance): 1.0
- level of expressed mRNA in the presence of chemical substance / level in the absence of chemical substance (yeast gene YBR162C, cultured two hours with the chemical substance): 1.9
- The level of expressed mRNA in the presence of chemical substance/The level of expressed mRNA in the absence of chemical substance (yeast gene YBR273C, cultured two hours with substance): 0.8
- level of expressed mRNA in the presence of chemical substance / level in the absence of chemical substance (yeast gene YBR287W, cultured two hours with the chemical substance): 1.3
- The level of expressed mRNA in the presence of chemical substance/The level of expressed mRNA in the absence of chemical substance (yeast gene YCL009C): 6.5
- The level of expressed mRNA in the presence of chemical substance/The level of expressed mRNA in the absence of chemical substance (yeast gene YCL040W, cultured for two hours with substance): 3.4
- The level of expressed mRNA in the presence of chemical substance/The level of expressed mRNA in the absence of chemical substance (yeast gene YCL049C, cultured two hours with substance): 1.4
- level of expressed mRNA in the presence of chemical substance / level in the absence of chemical substance (yeast gene YCL056C, cultured two hours with the chemical substance): 1.7
- level of expressed mRNA in the presence of chemical substance / level in the absence of chemical substance (yeast gene YCR007C, cultured two hours with the chemical substance): 0.8
- The level of expressed mRNA in the presence of chemical substance/The level of expressed mRNA in the absence of chemical substance (yeast gene YCR030C, cultured two hours with the chemical substance): 1.3
- The level of expressed mRNA in the presence of chemical substance/The level of expressed mRNA in the absence of chemical substance (yeast gene YCR082W, cultured two hours with substance): 1.6
- The level of expressed mRNA in the presence of chemical substance/The level of expressed mRNA in the absence of chemical substance (yeast gene YCR107W, cultured for two hours with substance): 4.8
- level of expressed mRNA in the presence of chemical substance / level in the absence of chemical substance (yeast gene YDL046W, cultured two hours with the chemical substance): 2.3
- The level of expressed mRNA in the presence of chemical substance/The level of expressed mRNA in the absence of chemical substance (yeast gene YDL110C, cultured two hours with substance): 1.3
- The level of expressed mRNA in the presence of chemical substance/The level of expressed mRNA in the absence of chemical substance (yeast gene YDL222C, cultured two hours with substance): 7.1
- The level of expressed mRNA in the presence of chemical substance/The level of expressed mRNA in the absence of chemical substance (yeast gene YDR031W, cultured two hours with substance): 0.8
- The level of expressed mRNA in the presence of chemical substance/The level of expressed mRNA in the absence of chemical substance (yeast gene YDR032C, cultured two hours with substance): 1.3
- level of expressed mRNA in the presence of chemical substance / level in the absence of chemical substance (yeast gene YDR090C, cultured two hours with the chemical substance): 1.1
- level of expressed mRNA in the presence of chemical substance / level in the absence of chemical substance (yeast gene YDR128W, cultured two hours with the chemical substance): 1.4
- level of expressed mRNA in the presence of chemical substance / level in the absence of chemical substance (yeast gene YDR133C, cultured two hours with the chemical substance): 0.6
- level of expressed mRNA in the presence of chemical substance / level in the absence of chemical substance (yeast gene YDR250C, cultured two hours with the chemical substance): 0.7
- level of expressed mRNA in the presence of chemical substance / level in the absence of chemical substance (yeast gene YDR278C, cultured two hours with the chemical substance): 0.7
- level of expressed mRNA in the presence of chemical substance / level in the absence of chemical substance (yeast gene YDR281C, cultured two hours with the chemical substance): 0.3
- level of expressed mRNA in the presence of chemical substance / level in the absence of chemical substance (yeast gene YDR366C, cultured two hours with the chemical substance): 1.4
- The level of expressed mRNA in the presence of chemical substance/The level of expressed mRNA in the absence of chemical substance (yeast gene YDR434W, cultured two hours with substance): 1.3
- The level of expressed mRNA in the presence of chemical substance/The level of expressed mRNA in the absence of chemical substance (yeast gene YDR476C, cultured two hours with substance): 2.2
- The level of expressed mRNA in the presence of chemical substance/The level of expressed mRNA in the absence of chemical substance (yeast gene YDR497C (transport facilitation protein gene)): 10.1
- The level of expressed mRNA in the presence of chemical substance/The level of expressed mRNA in the absence of chemical substance (yeast gene YDR511W, cultured two hours with substance): 0.8
- The level of expressed mRNA in the presence of chemical substance/The level of expressed mRNA in the absence of chemical substance (yeast gene YDR520C, cultured two hours with substance): 1.3
- The level of expressed mRNA in the presence of chemical substance/The level of expressed mRNA in the absence of chemical substance (yeast gene YER014W, mitochondria-located protein gene, cultured two hours with substance): 2.3
- The level of expressed mRNA in the presence of chemical substance/The level of expressed mRNA in the absence of chemical substance (yeast gene YER038C, cultured two hours with substance): 0.8
- The level of expressed mRNA in the presence of chemical substance/The level of expressed mRNA in the absence of chemical substance (yeast gene YER106W, cultured two hours with substance): 6.8
- The level of expressed mRNA in the presence of chemical substance/The level of expressed mRNA in the absence of chemical substance (yeast gene YER175C, cultured two hours with substance): 1.3
- level of expressed mRNA in the presence of chemical substance / level in the absence of chemical substance (yeast gene YFR026C, cultured two hours with the chemical substance): 2.3
- The level of expressed mRNA in the presence of chemical substance/The level of expressed mRNA in the absence of chemical substance (yeast gene YGL037C, cultured two hours with substance): 0.8
- level of expressed mRNA in the presence of chemical substance / level in the absence of chemical substance (yeast gene YGL088W, cultured two hours with the chemical substance): 0.4
- The level of expressed mRNA in the presence of chemical substance/The level of expressed mRNA in the absence of chemical substance (yeast gene YGL204C, cultured two hours with substance): 0.8
- The level of expressed mRNA in the presence of chemical substance/The level of expressed mRNA in the absence of chemical substance (yeast gene YGL259W, cultured two hours with substance): 1.3
- The level of expressed mRNA in the presence of chemical substance/The level of expressed mRNA in the absence of chemical substance (yeast gene YGR010W, cultured two hours with substance): 1.3
- level of expressed mRNA in the presence of chemical substance / level in the absence of chemical substance (yeast gene YGR038W, cultured two hours with the chemical substance): 1.1
- level of expressed mRNA in the presence of chemical substance / level in the absence of chemical substance (yeast gene YGR139W, cultured two hours with the chemical substance): 2.3
- The level of expressed mRNA in the presence of chemical substance/The level of expressed mRNA in the absence of chemical substance (yeast gene YGR141W, cultured two hours with the substance): 2.6
- The level of expressed mRNA in the presence of chemical substance/The level of expressed mRNA in the absence of chemical substance (yeast gene YGR142W, cultured two hours with substance): 1.3
- The level of expressed mRNA in the presence of chemical substance/The level of expressed mRNA in the absence of chemical substance (yeast gene YGR153W, cultured two hours with substance): 1.3
- level of expressed mRNA in the presence of chemical substance / level in the absence of chemical substance (yeast gene YGR243W, cultured two hours with the chemical substance): 0.8
- level of expressed mRNA in the presence of chemical substance / level in the absence of chemical substance (yeast gene YGR293C, cultured two hours with the chemical substance): 0.7
- level of expressed mRNA in the presence of chemical substance / level in the absence of chemical substance (yeast gene YHL006C, cultured two hours with the chemical substance): 0.6
- level of expressed mRNA in the presence of chemical substance / level in the absence of chemical substance (yeast gene YHR095W, cultured two hours with the chemical substance): 0.8
- level of expressed mRNA in the presence of chemical substance / level in the absence of chemical substance (yeast gene YHR105W, cultured two hours with the chemical substance): 0.9
- The level of expressed mRNA in the presence of chemical substance/The level of expressed mRNA in the absence of chemical substance (yeast gene YHR138C, cultured two hours with substance): 2.2
- The level of expressed mRNA in the presence of chemical substance/The level of expressed mRNA in the absence of chemical substance (yeast gene YHR142W): 4.8
- level of expressed mRNA in the presence of chemical substance / level in the absence of chemical substance (yeast gene YHR181W, cultured two hours with the chemical substance): 1.4
- The level of expressed mRNA in the presence of chemical substance/The level of expressed mRNA in the absence of chemical substance (yeast gene YIL041W, cultured two hours with substance): 1.3
- The level of expressed mRNA in the presence of chemical substance/The level of expressed mRNA in the absence of chemical substance (yeast gene YIL060W, cultured two hours with substance): 1.3
- The level of expressed mRNA in the presence of chemical substance/The level of expressed mRNA in the absence of chemical substance (yeast gene YIL117C, cultured two hours with substance): 7.5
- level of expressed mRNA in the presence of chemical substance / level in the absence of chemical substance (yeast gene YIL127C, cultured two hours with the chemical substance): 0.7
- The level of expressed mRNA in the presence of chemical substance/The level of expressed mRNA in the absence of chemical substance (yeast gene YIL143C, DNA repair protein genes, cultured two hours with substance): 1.3
- The level of expressed mRNA in the presence of chemical substance/The level of expressed mRNA in the absence of chemical substance (yeast gene YIR041W, cultured two hours with the chemical substance): 1.3
- level of expressed mRNA in the presence of chemical substance / level in the absence of chemical substance (yeast gene YJL017W, cultured two hours with the chemical substance): 1.1
- The level of expressed mRNA in the presence of chemical substance/The level of expressed mRNA in the absence of chemical substance (yeast gene YJL034W (transport facilitation protein gene)): 7.9
- level of expressed mRNA in the presence of chemical substance / level in the absence of chemical substance (yeast gene YJL037W, cultured two hours with the chemical substance): 1.6
- The level of expressed mRNA in the presence of chemical substance/The level of expressed mRNA in the absence of chemical substance (yeast gene YJL066C, cultured two hours with substance): 1.3
- level of expressed mRNA in the presence of chemical substance / level in the absence of chemical substance (yeast gene YJL097W, cultured two hours with the chemical substance): 1.1
- The level of expressed mRNA in the presence of chemical substance/The level of expressed mRNA in the absence of chemical substance (yeast gene YJL108C, cultured two hours with substance): 4.0
- The level of expressed mRNA in the presence of chemical substance/The level of expressed mRNA in the absence of chemical substance (yeast gene YJL149W, cultured two hours with substance): 9.0

Reference: patent publication US20100041089A1, “IMPROVED METHOD FOR DETECTING CHEMICAL […]” (priority 2006, published 2010)
